According to EP4269424A1, “NOVEL ANTIVIRAL COMPOUNDS AND USE THEREOF” (priority 2022, dated 2023):
No end group written: not given here.

Assays:
[1] = molecular target: G3BP1; assay type: binding, human
[2] = test system: Vero E6 cells

Row | Compound | Kd [1] | cell viability [2]
1 | LTFGDFTGSTGSTGSTGITFGDFDDW [G3BPi spacer3] | 2.4 µM | 
2 | CC[C@H](C)[C@H](NC(=O)CNC(=O)[C@H](CO)NC(=O)[C@H](C)NC(=O)[C@H](CC(C)C)NC(=O)[C@H](C)NC(=O)[C@H](CC(=O)O)NC(=O)[C@@H](NC(=O)[C@H](CCC(=O)O)NC(=O)[C@H](Cc1c[nH]cn1)NC(=O)[C@H](CCC(=O)O)NC(=O)[C@H](CC(=O)O)NC(=O)[C@H](Cc1ccccc1)NC(=O)[C@H](CC(=O)O)NC(=O)CNC(=O)[C@H](Cc1ccccc1)NC(=O)[C@@H](NC(=O)[C@H](CC(C)C)NC(=O)[C@H](CCCNC(=N)N)NC(=O)[C@H](CCCNC(=N)N)NC(=O)[C@H](CCCNC(=N)N)NC(=O)[C@H](CCC(N)=O)NC(=O)[C@H](CCCNC(=N)N)NC(=O)[C@H](CCCNC(=N)N)NC(=O)[C@H](CCCCN)NC(=O)[C@H](CCCCN)NC(=O)[C@H](CCCNC(=N)N)NC(=O)CNC(=O)[C@@H](N)Cc1ccc(O)cc1)[C@@H](C)O)C(C)C)C(=O)N[C@H](C(=O)N[C@@H](Cc1ccccc1)C(=O)NCC(=O)N[C@@H](CC(=O)O)C(=O)N[C@@H](Cc1ccccc1)C(=O)N[C@@H](CC(=O)O)C(=O)N[C@@H](CC(=O)O)C(=O)O)[C@@H](C)O [G3BPi WT] |  | not affected
3 | CC[C@H](C)[C@H](NC(=O)CNC(=O)[C@H](CO)NC(=O)[C@H](C)NC(=O)[C@H](CC(C)C)NC(=O)[C@H](C)NC(=O)[C@H](CCC(=O)O)NC(=O)[C@H](Cc1c[nH]cn1)NC(=O)[C@H](CCC(=O)O)NC(=O)[C@H](CC(=O)O)NC(=O)[C@H](Cc1ccccc1)NC(=O)[C@H](CC(=O)O)NC(=O)CNC(=O)[C@H](Cc1ccccc1)NC(=O)[C@@H](NC(=O)[C@@H](N)CC(C)C)[C@@H](C)O)C(=O)N[C@H](C(=O)N[C@@H](Cc1ccccc1)C(=O)NCC(=O)N[C@@H](CC(=O)O)C(=O)N[C@@H](Cc1ccccc1)C(=O)N[C@@H](CC(=O)O)C(=O)N[C@@H](CC(=O)O)C(=O)N[C@@H](Cc1c[nH]c2ccccc12)C(=O)O)[C@@H](C)O [G3BPi spacer2] | 4.4 µM | 
